“Also recorded” adds a separate entry of the source.
Key:
[1] = tested on: MKN45 Gastric Adenocarcinoma cells; assay: MKN45 tumor xenograft model, TGI; assay type: in vivo, athymic nude mice; conditions: 20 mg/kg p.o. QD, 16 days
Procedure: (§1) The efficacy of compounds disclosed herein was evaluated in a standard murine model of tumorigenesis. Human tumor cells (U87MG glioblastoma cells, MKN45 Gastric Adenocarcinoma cells, Caki-1 renal carcinoma cells, HUH 7 hepatocarcinoma cells, NCI-H441 lung adenocarcinoma epithelial cells, MDA-MB-231 breast adenocarcinoma cells, SMMC-7721 hepatoma cells, all from ATCC) were expended in culture, harvested, and injected subcutaneously onto the rear flank of 6-7 week old female athymic nude mice (BALB/cA nu/nu, Shanghai SLAC Laboratory Animal, Co.) (n=10 for vehicle group, n=8 for each dosing group). When tumors reached a volume of 100-250 mm^3, animals were randomly divided into vehicle control (for example, 2% HPMC+1% Tween-80 in water) and compound groups. […]
(§2) Progression of tumor growth is assessed by tumor volumes and recorded as a function of time. The long (L) and short (W) axes of the subcutaneous tumors were measured with calipers twice weekly, and the tumor volume (TV) calculated as (L×W^2)/2). TGI was calculated from the difference between the median tumor volumes of vehicle-treated and drug-treated mice, expressed as a percentage of the median tumor volume of the vehicle-treated control group, by the following relation: […]

[2] = molecular target: AXL (Homo sapiens (Human), UniProt P30530); assay: Axl cellular phosphorylation assay in transfected MEF cells (Sandwich-ELISA); assay type: cell-based; conditions: MEF cells expressing full-length AXL
Sequence of AXL (P30530 26-894): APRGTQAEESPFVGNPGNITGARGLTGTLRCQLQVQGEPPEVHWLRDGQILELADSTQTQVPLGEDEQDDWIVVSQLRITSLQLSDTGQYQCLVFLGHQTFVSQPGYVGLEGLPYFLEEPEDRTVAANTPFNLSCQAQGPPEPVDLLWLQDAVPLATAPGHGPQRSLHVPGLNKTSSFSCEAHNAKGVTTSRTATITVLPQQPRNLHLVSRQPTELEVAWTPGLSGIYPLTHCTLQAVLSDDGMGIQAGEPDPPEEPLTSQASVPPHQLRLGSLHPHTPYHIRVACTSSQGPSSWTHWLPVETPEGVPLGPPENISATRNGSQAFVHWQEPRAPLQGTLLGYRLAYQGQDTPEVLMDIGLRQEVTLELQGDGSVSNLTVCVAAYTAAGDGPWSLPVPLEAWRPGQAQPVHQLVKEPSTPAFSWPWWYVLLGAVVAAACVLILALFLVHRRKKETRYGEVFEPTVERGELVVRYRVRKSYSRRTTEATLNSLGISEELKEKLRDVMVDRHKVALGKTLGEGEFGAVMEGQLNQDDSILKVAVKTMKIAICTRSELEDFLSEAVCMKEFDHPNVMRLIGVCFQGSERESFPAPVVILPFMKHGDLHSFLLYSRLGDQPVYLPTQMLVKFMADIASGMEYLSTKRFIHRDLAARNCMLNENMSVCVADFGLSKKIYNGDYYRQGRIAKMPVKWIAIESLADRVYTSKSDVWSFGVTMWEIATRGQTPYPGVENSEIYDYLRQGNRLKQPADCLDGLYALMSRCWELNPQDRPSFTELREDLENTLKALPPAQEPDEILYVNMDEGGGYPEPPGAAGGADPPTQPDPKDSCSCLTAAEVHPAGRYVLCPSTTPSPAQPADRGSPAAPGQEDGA
Procedure: (§3) The autophosphorylation level was determined Sandwich-ELISA technique.
Axl Phosphorylation Assay:
Cellular AXL phosphorylation assay was generated on a mouse embryonal fibroblast (MEF) background. Cells were transfected to express a full-length AXL protein. […] PhosphoAXL levels are quantified by Sandwich-ELISA technique.

[3] = tested on: U87MG glioblastoma cells; assay: U87MG tumor xenograft model, TGI; assay type: in vivo, athymic nude mice; conditions: 10 mg/kg p.o. QD, 16 days
Procedure: as §1, §2

[4] = tested on: Caki-1 renal carcinoma cells; assay: Caki-1 tumor xenograft model, TGI; assay type: in vivo, athymic nude mice; conditions: 20 mg/kg p.o. QD, 21 days
Procedure: as §1, §2

[5] = molecular target: c-Met (Homo sapiens (Human), UniProt P08581); assay: cell-based
Sequence of c-Met (P08581 25-1390): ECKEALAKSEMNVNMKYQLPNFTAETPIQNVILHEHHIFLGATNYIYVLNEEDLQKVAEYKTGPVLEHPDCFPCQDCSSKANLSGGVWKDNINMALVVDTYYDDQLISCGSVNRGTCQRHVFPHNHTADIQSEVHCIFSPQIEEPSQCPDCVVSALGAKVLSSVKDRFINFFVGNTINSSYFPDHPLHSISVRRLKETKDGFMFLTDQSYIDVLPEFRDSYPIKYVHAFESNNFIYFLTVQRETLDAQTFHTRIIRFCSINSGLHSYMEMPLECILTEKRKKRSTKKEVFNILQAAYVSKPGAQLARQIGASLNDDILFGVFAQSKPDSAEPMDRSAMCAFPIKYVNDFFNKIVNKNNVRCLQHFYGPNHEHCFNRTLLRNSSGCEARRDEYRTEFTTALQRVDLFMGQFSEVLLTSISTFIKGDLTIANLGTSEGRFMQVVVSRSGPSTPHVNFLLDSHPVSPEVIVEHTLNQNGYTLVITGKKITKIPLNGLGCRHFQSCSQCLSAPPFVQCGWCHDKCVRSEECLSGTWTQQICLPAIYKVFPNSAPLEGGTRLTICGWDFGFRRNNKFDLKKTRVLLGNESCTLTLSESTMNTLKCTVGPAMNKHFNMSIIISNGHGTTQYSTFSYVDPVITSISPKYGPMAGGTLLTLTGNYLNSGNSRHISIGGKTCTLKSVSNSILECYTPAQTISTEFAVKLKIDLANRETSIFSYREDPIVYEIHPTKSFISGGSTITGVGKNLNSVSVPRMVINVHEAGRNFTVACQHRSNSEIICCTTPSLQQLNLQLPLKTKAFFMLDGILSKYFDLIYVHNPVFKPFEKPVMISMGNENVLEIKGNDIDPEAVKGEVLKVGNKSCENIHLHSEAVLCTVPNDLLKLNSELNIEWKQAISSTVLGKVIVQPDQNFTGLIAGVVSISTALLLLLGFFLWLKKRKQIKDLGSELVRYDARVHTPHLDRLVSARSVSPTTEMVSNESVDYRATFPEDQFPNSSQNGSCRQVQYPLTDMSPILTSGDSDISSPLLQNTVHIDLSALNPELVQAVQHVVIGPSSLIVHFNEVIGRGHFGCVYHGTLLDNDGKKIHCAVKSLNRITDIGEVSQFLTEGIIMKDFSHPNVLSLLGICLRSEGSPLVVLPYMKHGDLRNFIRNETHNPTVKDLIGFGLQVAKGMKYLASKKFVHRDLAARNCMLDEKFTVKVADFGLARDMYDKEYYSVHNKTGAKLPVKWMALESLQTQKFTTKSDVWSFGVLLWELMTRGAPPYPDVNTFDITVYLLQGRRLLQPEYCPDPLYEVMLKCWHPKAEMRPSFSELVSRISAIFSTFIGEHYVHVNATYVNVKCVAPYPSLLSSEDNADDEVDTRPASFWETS
Procedure: The autophosphorylation level was determined Sandwich-ELISA technique. IC50 values are determined by testing 8 compound concentrations in semi-logarithmic steps (each concentration in duplicates). The steps of the cellular phosphorylation assay are illustrated in FIG. 1.
c-Met Phosphorylation Assay:
The human gastric adenocarcinoma cell line MKN45 is known to overexpress c-Met. c-Met overexpression results in a constitutive, ligand-independent autophosphorylation of the kinase. […] Phospho-MET signal is subsequently quantified by Sandwich-ELISA technique. The assay is validated based on known inhibitors of MET kinase activity.

[6] = tested on: HUH 7 hepatocarcinoma cells; assay: Huh-7 tumor xenograft model, TGI; assay type: in vivo, athymic nude mice; conditions: 20 mg/kg p.o. QD, 14 days
Procedure: as §1, §2

[7] = tested on: MDA-MB-231 breast adenocarcinoma cells; assay: MDA-MB-231 tumor xenograft model, TGI; assay type: in vivo, athymic nude mice; conditions: for TGI % (on last day of dosing) MDA-MB-231: 21 days (Day 21); for inhibition of growth of MDA-MB-231 xenograft tumors (in words): 10, 20 and 40 mg/kg p.o. QD, 21 days
Procedure: The efficacy of compounds disclosed herein was evaluated in a standard murine model of tumorigenesis. Human tumor cells (U87MG glioblastoma cells, MKN45 Gastric Adenocarcinoma cells, Caki-1 renal carcinoma cells, HUH 7 hepatocarcinoma cells, NCI-H441 lung adenocarcinoma epithelial cells, MDA-MB-231 breast adenocarcinoma cells, SMMC-7721 hepatoma cells, all from ATCC) were expended in culture, harvested, and injected subcutaneously onto the rear flank of 6-7 week old female athymic nude mice (BALB/cA nu/nu, Shanghai SLAC Laboratory Animal, Co.) (n=10 for vehicle group, n=8 for each dosing group). When tumors reached a volume of 100-250 mm^3, animals were randomly divided into vehicle control (for example, 2% HPMC+1% Tween-80 in water) and compound groups. Subsequent administration of compound by oral gavage (for example, 3-50 mpk/dose, dissolved in 2% HPMC+1% Tween-80 in water) begins anywhere from day 0 to day 15 post tumor cell challenge and generally continues with once a day for the duration of the experiment. The studies using tumor xenograft animal models described herein were performed at Shanghai Institute of Materia Medica, Chinese Academy of Sciences, 555 Zu Chong Zhi Road, Zhang Jiang Hi-Tech Park, Pudong, Shanghai, 201203, China.
Progression of tumor growth is assessed by tumor volumes and recorded as a function of time. The long (L) and short (W) axes of the subcutaneous tumors were measured with calipers twice weekly, and the tumor volume (TV) calculated as (L×W^2)/2). TGI was calculated from the difference between the median tumor volumes of vehicle-treated and drug-treated mice, expressed as a percentage of the median tumor volume of the vehicle-treated control group, by the following relation:
Initial statistical analysis is done by repeated measures analysis of variance (RMANOVA). Followed by Scheffe psot hoc testing for multiple comparisons. Vehicle alone (2% HPMC+1% Tween-80, or the like) is the negative control.
FIG. 2 illustrates the tumor growth inhibition effects of Example 1 in MDA-MB-231 breast adenocarcinoma model. Example 1 was administrated orally (p.o.) at doses of 10, 20 and 40 mg/kg once a day (QD), for 21 consecutive days.
FIG. 3 illustrates the tumor growth inhibition effects of Example 2 in MDA-MB-231 breast adenocarcinoma model. Example 2 was administrated orally (p.o.) at doses of 10, 20 and 40 mg/kg once a day (QD), for 21 consecutive days.

[8] = molecular target: human VEGF-R2 (Homo sapiens (Human), UniProt P35968); assay: VEGF-R2 cellular phosphorylation assay in HUE cells (Sandwich-ELISA); assay type: cell-based; conditions: VEGF-A stimulated
Sequence of human VEGF-R2 (P35968 20-1356): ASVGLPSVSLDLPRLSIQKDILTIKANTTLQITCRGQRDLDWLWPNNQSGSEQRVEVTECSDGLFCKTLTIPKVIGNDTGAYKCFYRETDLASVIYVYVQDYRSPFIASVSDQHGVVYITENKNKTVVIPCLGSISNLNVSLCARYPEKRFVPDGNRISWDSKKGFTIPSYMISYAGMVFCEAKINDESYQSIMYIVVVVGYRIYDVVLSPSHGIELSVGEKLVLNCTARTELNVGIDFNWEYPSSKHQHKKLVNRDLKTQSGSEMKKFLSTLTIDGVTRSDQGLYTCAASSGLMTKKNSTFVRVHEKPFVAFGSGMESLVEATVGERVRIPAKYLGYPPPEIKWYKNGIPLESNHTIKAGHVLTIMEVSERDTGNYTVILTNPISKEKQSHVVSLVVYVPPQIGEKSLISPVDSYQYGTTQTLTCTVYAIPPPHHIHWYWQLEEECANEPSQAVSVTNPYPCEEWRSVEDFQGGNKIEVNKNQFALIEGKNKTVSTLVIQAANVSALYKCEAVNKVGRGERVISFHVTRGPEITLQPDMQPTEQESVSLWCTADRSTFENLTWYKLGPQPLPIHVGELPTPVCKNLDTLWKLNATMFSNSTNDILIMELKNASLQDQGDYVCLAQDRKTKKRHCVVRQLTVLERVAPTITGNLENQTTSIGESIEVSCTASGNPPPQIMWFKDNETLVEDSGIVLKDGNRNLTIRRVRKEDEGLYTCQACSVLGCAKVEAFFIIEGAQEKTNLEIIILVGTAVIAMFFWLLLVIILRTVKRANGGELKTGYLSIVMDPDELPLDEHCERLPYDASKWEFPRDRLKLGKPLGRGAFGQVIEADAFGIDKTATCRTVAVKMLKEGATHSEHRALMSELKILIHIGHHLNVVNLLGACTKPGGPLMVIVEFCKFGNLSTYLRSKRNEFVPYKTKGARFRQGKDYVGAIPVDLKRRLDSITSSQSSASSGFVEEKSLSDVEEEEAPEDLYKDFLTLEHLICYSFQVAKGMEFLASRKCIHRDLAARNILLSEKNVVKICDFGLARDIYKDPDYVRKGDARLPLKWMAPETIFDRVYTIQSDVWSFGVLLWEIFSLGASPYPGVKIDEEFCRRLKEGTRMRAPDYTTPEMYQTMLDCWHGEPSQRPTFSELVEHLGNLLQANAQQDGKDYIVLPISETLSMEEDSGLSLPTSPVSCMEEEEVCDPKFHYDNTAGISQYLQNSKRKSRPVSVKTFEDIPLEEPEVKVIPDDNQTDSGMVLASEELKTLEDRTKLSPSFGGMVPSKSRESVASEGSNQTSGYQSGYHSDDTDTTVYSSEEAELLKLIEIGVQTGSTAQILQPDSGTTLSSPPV
Procedure: as §3
VEGF-R2 Phosphorylation Assay:
Immortalized human umbilical vein endothelial cells (HUE) are known to overexpress human VEGF-R2. Stimulation of these cells with its physiological ligand VEGF-A results in a robust receptor autophosphorylation. Compounds are preincubated before cell stimulation to allow thorough target binding. Stimulation conditions are optimized to determine dose-related inhibition of the phospho-VEGF-R2 signal, which is subsequently quantified by Sandwich-ELISA technique. The assay is validated based on known inhibitors of VEGF-R2 kinase activity.

[9] = tested on: NCI-H441 lung adenocarcinoma epithelial cells; assay: NCI-H441 tumor xenograft model, TGI; assay type: in vivo, athymic nude mice; conditions: 20 mg/kg p.o. QD, 21 days
Procedure: as §1, §2

[10] = molecular target: KDR (h) (VEGF-R2(h)) (Homo sapiens (Human), UniProt P35968); assay: KDR (h) (VEGF-R2(h)) kinase assay; assay type: biochemical
Sequence of KDR (h) (VEGF-R2(h)) (P35968 20-1356): as above
Procedure: Kinase assays can be performed by measurement of incorporation of —^33P ATP into immobilized myelin basic protein (MBP). High binding white 384 well plates (Greiner) are coated with MBP (Sigma #M-1891) by incubation of 60 μl/well of 20 μg/ml MBP in Tris-buffered saline (TBS; 50 mM Tris pH 8.0, 138 mM NaCl, 2.7 mM KCl) for 24 hours at 4° C. Plates are washed 3× with 100 μl TBS. Kinase reactions are carried out in a total volume of 34 μl in kinase buffer (5 mM Hepes pH 7.6, 15 mM NaCl, 0.01% bovine gamma globulin (Sigma #I-5506), 10 mM MgCl2, 1 mM DTT, 0.02% TritonX-100). Compound dilutions are performed in DMSO and added to assay wells to a final DMSO concentration of 1%. Each data point is measured in duplicate, and at least two duplicate assays are performed for each individual compound determination. Enzyme is added to final concentrations of 10 nM or 20 nM, for example. A mixture of unlabeled ATP and —^33P ATP is added to start the reaction (2×10^6 cpm of —^33P ATP per well (3000 Ci/mmole) and 10 μM unlabeled ATP, typically. The reactions are carried out for 1 hour at room temperature with shaking. Plates are washed 7× with TBS, followed by the addition of 50 μl/well scintillation fluid (Wallac). Plates are read using a Wallac Trilux counter. This is only one format of such assays; various other formats are possible, as known to one skilled in the art.
The above assay procedure can be used to determine the IC50 for inhibition and/or the inhibition constant, Ki. The IC50 is defined as the concentration of compound required to reduce the enzyme activity by 50% under the condition of the assay. The IC50 value is estimated by preparing a 10 point curve using a log dilution series (for example, a typical curve may be prepared using the following compound concentrations; 100 μM, 30 μM, 10 μM, 3 μM, 1 μM, 0.3 μM, 0.1 μM, 0.03 μM, 0.01 μM and […]).
The kinase assays described herein were performed at Millipore UK Ltd, Dundee Technology Park, Dundee DD2 1SW, UK
KDR (h) (VEGF-R2(h)) Assay […]

[11] = molecular target: c-Met (h) (Homo sapiens (Human), UniProt P08581); assay: c-Met (h) kinase assay (33P-ATP filter, Millipore); assay type: biochemical
Sequence of c-Met (h) (P08581 25-1390): as the sequence (P08581 25-1390) above

[12] = molecular target: Axl (h) (Homo sapiens (Human), UniProt P30530); assay: Axl (h) kinase assay; assay type: biochemical
Sequence of Axl (h) (P30530 26-894): as the sequence (P30530 26-894) above
Procedure: Compound dilutions are performed in DMSO and added to assay wells to a final DMSO concentration of 1%. Each data point is measured in duplicate, and at least two duplicate assays are performed for each individual compound determination. Enzyme is added to final concentrations of 10 nM or 20 nM, for example.
The above assay procedure can be used to determine the IC50 for inhibition and/or the inhibition constant, Ki.
(specific activity approx. 500 cpm/pmol, concentration as required). The reaction is initiated by the addition of the MgATP mix. After incubation for 40 minutes at room temperature, the reaction is stopped by the addition of 3% phosphoric acid solution. 10 μL of the reaction is then spotted onto a P30 filtermat and washed three times for 5 minutes in 75 mM phosphoric acid and once in methanol prior to drying and scintillation counting.

SMILES: Cc1c(C(=O)Nc2ccc(Oc3ccnc4cc(OCC(C)(C)O)ccc34)c(F)c2)c(=O)n(-c2ccccc2)n1C [Example 1, N-(3-fluoro-4-((7-(2-hydroxy-2-methylpropoxy)quinolin-4-yl)oxy)phenyl)-1,5-dimethyl-3-oxo-2-phenyl-2,3-dihydro-1H-pyrazole-4-carboxamide]
- TGI % (on last day of dosing) MKN45 [1]: 97%
- IC50 [2]: < 1 nM
- TGI % (on last day of dosing) U87MG [3]: 98%
- TGI % (on last day of dosing) Caki-1 [4]: 87%
- IC50 [5]: 6.9 nM
- TGI % (on last day of dosing) Huh-7 [6]: 53%
- TGI % (on last day of dosing) MDA-MB-231 ([7]; 10 mg/kg p.o. QD): 97%
- TGI % (on last day of dosing) MDA-MB-231 ([7]; 20 mg/kg p.o. QD): 112%
- TGI % (on last day of dosing) MDA-MB-231 ([7]; 40 mg/kg p.o. QD): 120%
- inhibition of growth of MDA-MB-231 xenograft tumors (in words) [7]: inhibited the growth; also recorded: statistically significant, dose-dependent inhibition
- IC50 [8]: 1.7 nM
- TGI % (on last day of dosing) NCI-H441 [9]: 97%
- IC50 [10]: 37 nM
- IC50 [11]: 19 nM
- IC50 [12]: 11 nM

SMILES: Cc1c(C(=O)Nc2ccc(Oc3ccnc4cc(OC[C@@H](C)O)ccc34)c(F)c2)c(=O)n(-c2ccccc2)n1C [Example 2, (R)—N-(3-fluoro-4-((7-(2-hydroxypropoxy)quinolin-4-yl)oxy)phenyl)-1,5-dimethyl-3-oxo-2-phenyl-2,3-dihydro-1H-pyrazole-4-carboxamide]
- TGI % (on last day of dosing) MKN45 [1]: 22%
- TGI % (on last day of dosing) MDA-MB-231 ([7]; 10 mg/kg p.o. QD): 72%
- TGI % (on last day of dosing) MDA-MB-231 ([7]; 20 mg/kg p.o. QD): 87%
- TGI % (on last day of dosing) MDA-MB-231 ([7]; 40 mg/kg p.o. QD): 96%
- inhibition of growth of MDA-MB-231 xenograft tumors (in words) [7]: inhibited the growth; also recorded: statistically significant, dose-dependent inhibition
- IC50 [10]: 23 nM
- IC50 [11]: 7 nM

SMILES: COc1cc2c(Oc3ccc(NC(=O)c4c(C)n(C)n(-c5ccccc5)c4=O)cc3F)ccnc2cc1OCC(C)(C)O [Example 4, N-(3-fluoro-4-((7-(2-hydroxy-2-methylpropoxy)-6-methoxyquinolin-4-yl)oxy)phenyl)-1,5-dimethyl-3-oxo-2-phenyl-2,3-dihydro-1H-pyrazole-4-carboxamide]
- IC50 [10]: 40 nM
- IC50 [11]: 10 nM

SMILES: Cc1c(C(=O)Nc2ccc(Oc3ccnc4cc(OCC(C)(C)O)ccc34)cc2)c(=O)n(-c2ccccc2)n1C [Example 9, N-(4-((7-(2-hydroxy-2-methylpropoxy)quinolin-4-yl)oxy)phenyl)-1,5-dimethyl-3-oxo-2-phenyl-2,3-dihydro-1H-pyrazole-4-carboxamide]
- TGI % (on last day of dosing) U87MG [3]: 97%
- IC50 [11]: 13 nM

SMILES: Cc1c(C(=O)Nc2ccc(Oc3ccnc4cc(OC[C@@H](C)O)ccc34)cc2)c(=O)n(-c2ccccc2)n1C [Example 11, (R)—N-(4-((7-(2-hydroxypropoxy)quinolin-4-yl)oxy)phenyl)-1,5-dimethyl-3-oxo-2-phenyl-2,3-dihydro-1H-pyrazole-4-carboxamide]
- IC50 [11]: 15 nM

SMILES: Cc1c(C(=O)Nc2ccc(Oc3ccnc4cc(OC[C@H](C)O)ccc34)cc2)c(=O)n(-c2ccccc2)n1C [Example 12, (S)—N-(4-((7-(2-hydroxypropoxy)quinolin-4-yl)oxy)phenyl)-1,5-dimethyl-3-oxo-2-phenyl-2,3-dihydro-1H-pyrazole-4-carboxamide]
- IC50 [11]: 13 nM

SMILES: Cc1c(C(=O)Nc2ccc(Oc3ccnc4cc(OC(C)(C)CO)ccc34)c(F)c2)c(=O)n(-c2ccccc2)n1C [Example 14, N-(3-fluoro-4-((7-((1-hydroxy-2-methylpropan-2-yl)oxy)quinolin-4-yl)oxy)phenyl)-1,5-dimethyl-3-oxo-2-phenyl-2,3-dihydro-1H-pyrazole-4-carboxamide]
- IC50 [11]: 27 nM

— patent US9133162B2, “Substituted quinoline compounds and methods of use” (SUNSHINE LAKE PHARMA CO., LTD., priority 2011, dated 2015)
